Measured values published in ChEMBL document CHEMBL1156829 (Proc Natl Acad Sci U S A, 2008).

Columns and labels:
Plasmodium falciparum [1] = test: NOVARTIS: Inhibition of Plasmodium falciparum 3D7 (drug-susceptible) proliferation in erythrocyte-based infection assay; type: functional, organism-based; conditions: Plasmodium falciparum, 3D7
Plasmodium falciparum [2] = test: NOVARTIS: Inhibition of Plasmodium falciparum W2 (drug-resistant) proliferation in erythrocyte-based infection assay; type: functional, organism-based; conditions: Plasmodium falciparum, W2; read-out: EC50
[3] = NOVARTIS: Cytotoxicity against human hepatocellular carcinoma cell line (Huh7); type: toxicity, cell-based, Huh-7; conditions: Huh7 cells (hepatocellular carcinoma cell line)

SMILES | EC50 (Plasmodium falciparum [1]) [nM] | EC50 (Plasmodium falciparum [2]) [nM] | CC50 [3] [nM]
Cc1ccc(NC(C)C(=O)Nc2ccc(C#N)cc2)cc1S(=O)(=O)N1CCCCC1 (stereo not given) | 406 | 446 | 59500
Cc1ncc(CN2CCC(C(=O)Nc3ccc(-c4nc5ccccc5o4)cc3)CC2)s1 | 740 | 721 | > 100000
CCCN(CCC)S(=O)(=O)c1ccc(C(=O)Nc2ccccc2C(=O)Oc2ccc3c(c2)c(C(=O)OCC)c(C)n3-c2ccccc2)cc1 | 726 | 744 | > 100000
CN(C)CCNc1cc(-c2ccc3ccccc3c2)nc2ccccc12 | 810 | 729 | > 100000
Cc1ccc2cc3c(N)c4cccc(C)c4nc3nc2c1 | 115 | 73.6 | > 10000
COc1ccc2nc(C)cc(Nc3ccc(Oc4ccc5ccccc5c4Cl)c(Cl)c3)c2c1 | 100 | 491 | 64100
O=[N+]([O-])c1ccc(C=NNc2nc3ccccc3[nH]2)cc1 | 818 | 742 | > 100000
COc1ccc(-c2csc3ncnc(Cl)c23)cc1OC | 2320 | 723 | > 100000
CCOc1ccc(-c2nc(NC(=O)CS(=O)(=O)c3ccccc3)sc2C)cc1 | 525 | 740 | > 100000
OCCNc1nc(Nc2ccc(F)cc2)nc2ccccc12 | 223 | 749 | > 100000
CN(C)CCCNc1ccnc2cc(Cl)ccc12 | 76.9 | 76.3 | > 10000
CN(C)c1ccc(NC=CC(=O)C(C)(C)C)cc1 | 1050 | 282 | 36900
Oc1c(CN2CCCCC2)ccc2ccccc12 | 5630 | 727 | > 100000
COc1ccc(CN2CCN(Cc3ccc(OC)c(C)c3C)C(CCO)C2)c(O)c1 (stereo not given) | 1650 | 319 | > 44200
N#Cc1c(N)nc2sc(C(=O)Nc3ccc(Br)cc3)c(N)c2c1-c1ccccc1 | 8210 | 763 | > 100000
CCOC(=O)c1c(C)[n+](-c2ccc(C)cc2)c(CC)c2cc(OC)c(OC)cc12 | 702 | 683 | > 94000
CC(C)(C)CC(C)(C)Nc1c(-c2ccccc2OC(=O)c2ccc(Cl)c(Cl)c2)nc2ccccn12 | 920 | 72.3 | > 10000
CC(Oc1cccc(Cl)c1)C(=O)N1CCc2ccccc21 (stereo not given) | 748 | 750 | > 100000
CN(CCCNc1ccc(C(=O)Nc2ccc(C(F)(F)F)cc2)cc1[N+](=O)[O-])Cc1ccccc1 | 316 | 720 | > 100000
Cc1ccn2c(NC(C)(C)CC(C)(C)C)c(-c3ccccc3OC(=O)C3CCC3)nc2c1 | 822 | 75.7 | > 10000
COc1cc2nc(Nc3ccc(F)cc3)nc(N)c2cc1OC | 117 | 139 | 18400
COc1cc(CN2CCC3(CC2)CC3C(=O)NCCc2ccccc2OC)ccc1O (stereo not given) | 2350 | 739 | > 100000
Cc1cc(C)nc(NNc2c([N+](=O)[O-])cccc2[N+](=O)[O-])n1 | 1800 | 167 | 22000
CC(=O)Nc1ccc(S(=O)(=O)N2CCC(c3nc(-c4cccnc4)no3)CC2)cc1 | > 9640 | 736 | > 100000
CCC(=O)NNc1cc(N2CCCC2)nc(N2CCCC2)n1 | 790 | 760 | > 100000
CCCN(CCC)S(=O)(=O)c1cc(Br)cc2c1N(C(=O)CC)CC2 | 476 | 760 | > 100000
Cc1ccc(-[n+]2c(-c3ccccc3)cn3c2CCCCC3)cc1 | 605 | 515 | 67800
CCOC(=O)c1c(N=Cc2cccc(OC)c2O)sc2c1CCN(C)C2 | > 12500 | 744 | > 100000

SMILES | EC50 (Plasmodium falciparum [1]) [nM] | EC50 (Plasmodium falciparum [2]) [nM] | CC50 [3] [nM]
CCCCOc1ccc(N(C(C)=O)C2=C(N3CCOCC3)C(=O)c3ccccc3C2=O)cc1 | 232 | 304 | 41000
CCCCCCCCC(=O)Oc1ccccc1-c1nc2cc(C)ccn2c1NC(C)(C)CC(C)(C)C | 713 | 74 | > 10000
COc1ccc(Nc2nc(NN=Cc3cc([N+](=O)[O-])ccc3OC)nc(Nc3ccc([N+](=O)[O-])cc3)n2)cc1 | 728 | 762 | > 100000
CCOC(=O)NN=C(C)c1ccc(C(C)=NNC(=O)OCC)cc1 | > 5590 | 747 | > 100000
Clc1ccc(-c2csc3ncnc(NCc4ccncc4)c23)cc1 | 2890 | 746 | > 100000
OC(CN1CCN(Cc2ccccc2)CC1)Cn1c2ccc(I)cc2c2cc(I)ccc21 (stereo not given) | 651 | 148 | 20100
O=c1sc(=NCC(O)c2ccc(Cl)c(Cl)c2)[nH]c2ccccc12 (stereo not given) | 757 | 73.1 | > 10000
CCCNC1=C(c2ccc(OC)cc2)C(=O)c2ccccc21 | 3380 | 754 | > 100000
CCOc1cccc(Nc2cc(C)nc3ncnn23)c1 | 679 | 729 | > 100000
CN(C)c1ccc(/C=C/C(=O)NC(=O)c2ccccc2O)cc1 | 84.4 | 75.2 | > 10000
CCOc1ccc2[nH]c3c(NCCCN4CCOCC4)ncnc3c2c1 | 749 | 267 | 36400
CC[n+]1c(C)n(-c2ccccc2)c2ccc(C3Nc4ccccc4S3)cc21 (stereo not given) | 1180 | 734 | > 100000
CCn1c(SCCCCNC(=O)c2cc([N+](=O)[O-])cc([N+](=O)[O-])c2)nc(-c2ccc(C)cc2)c1-c1ccc(C)cc1 | 679 | 73.1 | > 10000
Cc1oc(C)c2c(=O)cc(-c3cccs3)cc(O)c12 | 1220 | 758 | > 100000
CCc1c2ccc(C)n2cc[n+]1CC | 610 | 749 | > 100000
Cc1cccc(C)c1-n1c(SCc2cccc(F)c2)nc2c(sc(=S)n2-c2c(C)cccc2C)c1=O | 5160 | 728 | > 100000
Cc1cccc(C(=O)NCc2nnc(S)n2-c2cccc(C(F)(F)F)c2)c1 | 2180 | 750 | > 100000
O=C(c1cc2n(n1)C(C(F)(F)F)CC(c1cccs1)N2)N1CCN(C(c2ccccc2)c2ccccc2)CC1 (stereo not given) | 341 | 745 | > 100000
COc1cc(CN(CC[C@H](c2ccccc2)c2c(O)ccc3ccccc23)Cc2ccccc2)cc(OC)c1 | 702 | 75.4 | > 10000
Cc1cc(C)n(CC(O)Cn2c3ccc(Cl)cc3c3cc(Cl)ccc32)n1 (stereo not given) | 1010 | 342 | 45500
CCCN(CCC)S(=O)(=O)c1cc(Br)cc2c1N(C(=O)C1CC1)CC2 | 410 | 736 | > 100000
Cc1ccn2c(NC(C)(C)CC(C)(C)C)c(-c3ccccc3OC(=O)C(C)(C)CCl)nc2c1 | 699 | 76.3 | > 10000
CN1C2CCC1C(=Cc1ccsc1)C(=O)C2=Cc1ccsc1 | 676 | 748 | > 100000
c1ccc(Cn2c(N=Nc3c(Nc4ccccc4)ccc4ccccc34)nc3ccccc32)cc1 | 2730 | 669 | 88000
CCCCOC(=O)c1ccc(NC2=C(c3ccc(OC)cc3)C(=O)c3ccccc32)cc1 | 1210 | 758 | > 100000
COc1ccc2nc(C)cc(NN=Cc3cccs3)c2c1 | 158 | 134 | 18400
CCC1=[N+](C)c2cccc3cccc(c23)N1C | 958 | 739 | > 100000
